From a melting point compilation (Tetko et al.; mined from patent text by program, amines drawn as free bases though some values may be those of a salt)

| Structure (SMILES) | melting point [°C] |
| --- | --- |
| Cc1cc(C2=CC3(CC(C)(C)C2CO)SCCCS3)ccc1F (stereo unspecified) | 128 to 129 |
| Cc1c2c(c(Cc3ccc(C(C)C)cc3)c(C)c1NC(=O)CC(C)(C)C)OCC2 | 201 to 202 |
| COC(=O)c1c(C)c(-c2cc(OC)c(Cl)cc2F)nn1C | 135 to 137 |
| CC(C)Cc1ccc(C(C)C(=O)NO)cc1 (stereo unspecified) | 119 to 121 |
| CCCOc1ccc(S(=O)(=O)N2CCN(CCOC(C)=O)CC2)cc1-c1nc2c(CCC)cn(CC)c2c(=O)[nH]1 | 139 to 140 |
| COC(=O)c1ccc(NC(C)=O)cc1O | 148 to 151 |
| CS(=O)(=O)c1ccc(Br)cc1Br | 124 to 126 |
| O=Cc1c(Cl)cccc1OC[C@H]1CO1 | 62 to 64 |
| CC(C)c1nc(CCOC2=CCCCCCC2)n(C)c1Sc1cc(Cl)cc(Cl)c1 | 73 to 74 |
| CCn1cc(C(=O)O)c(=O)c2cc(F)c(N3CCOC(CNC=O)C3)c(F)c21 (stereo unspecified) | 234 to 236 |
| CCCCCCCCCCCCCCCCCC(=O)Oc1cc(C(C)(C)C)c(O)c(C(C)(C)C)c1 | 35 to 39 |
| CSC1=C(c2cccc3sccc23)N2CCN=C2S1 | 104 to 107 |
| CN(C)Cc1cc(C(=O)c2cccs2)cc(C(C)(C)C)c1O | 132 to 134 |
| COc1cccc2c1C(C)(C)CC(O)(C(F)(F)F)C2Nc1cccc2c1cnn2C (stereo unspecified) | 172 to 174 |
| COc1ccc(Cl)cc1[C@]1(F)C(=O)N(C(=O)NC(C)(C)C(=O)OC(C)(C)C)c2cc(C(F)(F)F)ccc21 | 57 to 60 |
| O=C(/C=C/c1ccc(C(F)(F)F)cc1Br)Nc1ccc2ncsc2c1 | 214 to 215 |
| Cc1cc(C#N)cc(C)c1C(=O)CBr | 76 |
| CCNC(=O)C1CC(n2cnc3c(NC(CC)Cc4ccc(Cl)s4)ccnc32)C(O)C1O (stereo unspecified) | 77 to 85 |
| NNc1nccc(-c2cccc(C(F)(F)F)c2)n1 | 103 to 106 |
| O=C1CCc2c([nH]c3ccc(Cl)cc23)C1 | 194 to 196 |
| O=C(O)CC(CC(=O)O)c1cc(C(=O)O)n(CC(=O)O)c1 | 130 |
| CCOC(=O)COc1ccc(CBr)cc1 | 44 to 45 |

| Structure (SMILES) | melting point [°C] |
| --- | --- |
| CCCCCCCCCCCCCCC1CC(=O)N(NC(=O)CCc2cc(C(C)(C)C)c(O)c(C(C)(C)C)c2)C1=O (stereo unspecified) | 70 to 77 |
| N#CC#Cc1ccc(O)cc1 | 134 to 137 |
| CC(C)(C)c1cc(=O)n(-c2c(Cl)cc(C(F)(F)F)cc2Cl)[nH]1 | 175 |
| COC(=O)CC1CC(c2ccc(C#N)cn2)=NO1 (stereo unspecified) | 97 to 98 |
| CC1(C)C(=O)N(c2ccc(C#N)c(C(F)(F)F)c2)C(=O)N1CCCCCN1C(=O)N(c2ccc(C#N)c(C(F)(F)F)c2)C(=O)C1(C)C | 167 to 169 |
| O=C1Nc2ccncc2N2CCNCC12 (stereo unspecified) | 303 to 306 |
| CC(C)Cn1c(CNC(=O)OC(C)(C)C)c(-c2cccs2)c2cc(C(=O)O)ccc2c1=O | 224 to 226 |
| CCOc1ccc2c(ccn2C)c1O | 69 to 70 |
| CC(C)(C)c1cc(C(Cl)Cl)c(Cl)c(C(C)(C)C)c1O | 176 to 177 |
| N=C(N)Nc1nc(CSCCNC2=C([N+](=O)[O-])CCCN2)cs1 | 211 to 212 |
| Cn1c2c(c3ccccc31)CCNC2 | > 250 |
| CS(=O)(=O)N1CCSc2ccccc2C1 | 98 to 100 |
| CN(C)Cc1ccc(COCC(N)=O)s1 | 86.5 to 95 |
| Cn1cc(C(F)(F)F)c(C(=O)O)c1F | 190 to 191 |
| COc1ccc([N+](=O)[O-])c2nccc(Cl)c12 | 125 to 138 |
| O=C(O)Cn1cc(Cl)c(-c2cc(Cl)cc(Cl)c2)n1 | 182 |
| CC(C)(Cl)C(COCc1ccc([N+](=O)[O-])o1)N=O (stereo unspecified) | 134 to 135 |
| Cn1ncnc1COc1nn2cnnc2cc1-c1ccsc1 | 220 to 222 |
| CCCS(=O)(=O)c1cccnc1S(N)(=O)=O | 153 to 157 |
| CCN(CC)C(=O)Cc1c(-c2ccc(OC)cc2)nc2c(C)cc(C)nn12 | 129 to 131 |
| CCOC1Nc2c(O)cccc2C(=O)N2CCCC12 (stereo unspecified) | 153 to 155 |

More lines, now with the values ahead:

| melting point [°C] | Structure (SMILES) |
| --- | --- |
| 153 to 155 | Cc1cc(Cl)nnc1-c1cccc(C#N)c1 |
| 152 | CN(C(=O)CN(C(=O)CNC(=O)Nc1cccc(CCO)c1)c1ccccc1)c1ccccc1 |
| 270 to 280 | O=C(CNS(=O)(=O)c1ccc2[nH]c(=O)c(=O)[nH]c2c1)OCc1ccccc1 |
| 80 to 81 | COc1ccc(-c2nc(C)cc(Cl)n2)cc1 |
| 172 to 174 | COc1ccc(NC(=O)c2ccc([N+](=O)[O-])cc2)c(OC)c1 |
| 155 to 156 | O=C(NCCO)c1cccc(-c2cncc3cc(Cc4cccc(C(F)(F)F)c4)oc23)c1 |
| 173 to 175 | Cc1cccc(C(=O)c2ccc(OCC(=O)O)c(Cl)c2Cl)c1 |
| > 350 | O=c1[nH]c2ccc(Cl)cc2c2nc(-c3ccc(O)cc3)nn12 |
| 196 to 198 | Cc1oc(-c2ccccc2)nc1CCOc1ccc(NC(=O)C(=O)O)cc1 |
| 81 to 82 | CCOC(=O)c1conc1-c1ccc(-c2ccccc2)cc1 |
| 109 to 110 | COCOc1ccccc1-c1cc(-c2ccccc2C(=O)OC)c(C#N)c(N)n1 |
| 148 to 150 | C=C(C)CN(CC)c1nc(C)[nH]c2cc(-c3ccccc3)nc1-2 |
| 145 to 148 | CCN(CC)CCn1cc(C(=O)NCc2ccc(Cl)cc2)c(=O)c2cc(C#CCO)ccc21 |
| 164 to 165 | Cc1ccc(-c2nn(CCCO)c(N)c2C(N)=O)cc1 |
| 182 to 183 | O=C(O)COc1cccc(COC(=O)N(c2ccccc2)c2ccccc2)c1Cl |
| 83.1 to 84.3 | COc1ccc(NC(=O)c2ccccc2F)cc1 |
| 90 to 93 | CCCCOc1ccc(S(=O)(=O)OC2CN(S(=O)(=O)c3ccc(OCCCC)cc3)C2)cc1 |
| 189 to 190 | OCc1cc2ccccc2nc1I |
| 102 to 104 | O=C(O)Cc1ccc(Cl)cc1OCCc1ccccc1 |
| 105 | CCC1(C)CCN(c2ccc([N+](=O)[O-])cc2C(=O)c2ccc(Cl)cc2)CC1 |

| melting point [°C] | Structure (SMILES) |
| --- | --- |
| 113 to 114 | COc1ccc(C(=O)N2c3ccccc3C(N3CCSc4ccccc43)CC2C)cc1OC (stereo unspecified) |
| 81 to 82 | CON(C)C(=O)Nc1ccc(OCCc2ccc(C(C)C)cc2)cc1 |
| > 230 | O=C(O)c1cccc(Cn2cc(C3c4ccccc4C=Cc4ccccc43)c(=S)[nH]c2=O)c1 |
| 66 to 67 | O=C(CCc1nc(-c2ccc(Cl)cc2)co1)OCc1ccccc1 |
| 168 to 171 | CC(C(=O)O)c1ccc(-c2nc3ccccc3o2)c(F)c1 (stereo unspecified) |
| 119 to 122 | CCOCCCN(C)Cc1ccc(NC(=O)C2=Cc3cc(-c4ccc(C)cc4)ccc3OCC2)cc1 |
| 194 | O=C(Cc1c[nH]c2ccccc12)NCCN1CCC(Nc2nc3ccccc3n2Cc2ccc(F)cc2)CC1 |
| 181 to 182 | CCCCc1oc2ccccc2c1/C=N/OCCCOc1ccc(CC(=O)O)cc1 |
| 149 to 151 | Cc1c(SCCCN2CCN(Cc3ccncc3)CC2)ccnc1CNc1ncncc1Cl |
| 208 to 209 | COc1nc2cccc(C(=O)O)c2n1Cc1ccc(-c2ccccc2-c2nnn[nH]2)cc1 |
| 129 to 135 | CCN1C(=O)C(C(=O)Nc2cccc(C(=O)Nc3ccccc3)c2)c2cc(C(=O)c3ccccc3)ccc21 (stereo unspecified) |
| 126 to 128 | Cc1ccccc1-c1ccc(C(=O)N2Cc3ccc(C(=O)NCc4ccccc4C(F)(F)F)n3Cc3ccccc32)cc1C |
| 210 to 216 | Cc1ccc(Nc2nc(-n3nc(C)cc3C)nc3ccccc23)cc1 |
| 205 to 207 | O=C1CCCC(c2ccc(O)c(O)c2)N1c1ccc(Cl)cc1 (stereo unspecified) |
| 246 to 247 | CNC(=O)c1cc(-c2ccc(OC)cc2)n[nH]c1=O |
| 113 to 116 | Cc1ccc(-c2c(NS(=O)(=O)c3ccc(C(C)(C)C)cc3)nc(NCCOC3CCCCO3)nc2OCCO)cc1 (stereo unspecified) |
| 215 to 217 | C=CCc1c2n(c3ccccc13)C(=O)C(Cc1nc[nH]c1C)CC2 (stereo unspecified) |
| 66 to 68.5 | COc1cccc(CNC(=O)c2ccc(COC3CCCCO3)cc2)c1 (stereo unspecified) |
| 125 to 127 | CN(C)C(=O)c1ccccc1CC(=O)Nc1cccc(/C=C/c2nc(C3CCC3)cs2)c1 |
| 140 to 142 | CCCCCCc1ccc(-c2c(C#N)nn(C(C)(C)Cc3ccc(C)cc3)c2O)cc1 |

| melting point [°C] | Structure (SMILES) |
| --- | --- |
| 146 to 149 | CCCNC(=S)Nc1ccnc(CCCCCN2C(=O)c3ccccc3C2=O)n1 |
| 219 to 223 | O=C(O)Cc1c(C(=O)O)c2cc(Oc3cc(Cl)cc(Cl)c3)ccc2n1-c1ccc(OC(F)(F)F)cc1 |
| 178 to 180 | Cc1ccn(-c2ccc(C(=O)N3Cc4ccc(C)n4Cc4ccccc43)c(Cl)c2)n1 |
| 114 to 115 | CCOC(=O)c1c(-c2ccc(F)cc2)cc(-c2cccs2)nc1C(C)C |
| > 270 | O=c1[nH]c2cc(Cl)ccc2c(O)c1Sc1nc2ccccc2s1 |
| 80 to 83 | CCOC(=O)[C@H](Cc1c[nH]c2ccccc12)NC(=O)OCc1ccccc1 |
| 129 to 131 | O=C(CCCN1CCN(c2ncc3ccccc3n2)CC1)c1ccc(F)cc1 |
| 250 to 256 | CC(C)OC(=O)c1nc(-c2ccc(=O)[nH]c2)c(-c2ccccc2)nc1N |
| > 300 | O=C(O)c1ccc(-c2cc(-c3ccccc3)no2)cc1 |
| 181 to 183 | O=C(O)C(O)c1cccc(OCc2ccccc2Cl)c1OCc1ccncc1 (stereo unspecified) |
| 129 to 130 | CCCCSc1c(CC(C)(C)C(=O)O)n(Cc2ccc(Cl)cc2)c2ccc(C(C)C)cc12 |
| 156 to 157 | N#CCCN1CCN(Cc2ccc3c(c2)-c2[nH]nc(-c4ccsc4)c2C3)CC1 |
| 111 to 114 | Cc1ccc(C)c(C(=O)c2ccccc2)c1O |
| 129 to 130 | CC1CN(c2cc3c(c(NCc4ccccc4)c2F)c(=O)c(C(=O)O)cn3C2CC2)CCN1 (stereo unspecified) |
| 241 | Nc1ccc(C(=O)c2ccc(N)cc2)cc1 |
| 145 | CCOC(=O)Oc1ccc(C(=O)Oc2ccc(C#N)cc2)cc1 |
| 96.7 | O=C(c1ccccc1)c1ccc(Cl)c(N=C=S)c1 |
| 134 to 136 | O=C(c1cc[nH]c1)c1ccc2ccccc2c1 |
